The values below come from patent publication US6900041B2, “Methods and compositions for the treatment of inflammatory diseases” (Reddy US Therapeutics Inc., priority 2000, dated 2005).

Common to all, as to type: cell-based, human
Experiment [1] concerns MCP-1 production by endothelial cells. The experiment can be described thus: MCP-1 ELISA of endothelial cell media. The settings on record: 24 h. Here is the method: MCP-1 ELISA was carried out using Quantikine Human MCP-1 kit as described by manufacturer (R&D Systems). Mouse anti-human MCP-1 was used as the capture antibody and HRP-conjugated goat anti-human MCP-1 was used as the detection antibody. Culture media were incubated with capture antibody (in 96 well) for 2 h at room temperature. Wells were washed three times with wash buffer (0.05% Tween-20 in PBS followed by incubation with detection antibody for 2 h at room temperature. Color development was read at 450 nm in a microplate reader.
Endothelial cells, as grown in Example 1 and 2, were transfected with oligonucleotides using Cytofectin transfection reagent. […] IL-6 and MCP-1 were determined by ELISA, as shown in Examples 2 and 3.
Inhibition of GSK-3β led to […] inflammatory gene expression in endothelial cells. Overexpression of GSK-3β protein inhibited inducible inflammatory gene expression in endothelial cells. Full length GSK-3β cDNA was cloned into a retroviral vector pLIB. Empty vectors or vectors carrying alkaline phosphatase were used as controls. Retroviral particles carrying different genes were generated in HEK-293 cells. […] IL-6 and MCP-1 were determined by ELISA as described in Examples 2 and 3.
A general note: In an ELISA, binding on a coated surface is turned into a signal by an enzyme label.

For the next experiment, the system named is VCAM-1 expression. The experiment can be described thus: VCAM-1 ELISA on endothelial cell monolayers. Particulars: 24 h. The protocol:
HMVEC cells were treated with control medium or medium containing 10 ng/ml TNFα or 100 μg/ml glycated-HSA for 24 hrs. All treatments and controls were carried out in serum free media containing 0.2% albumin. Following treatment, cell media were collected and used for IL-6, MCP-1 ELISA and cells were used for VCAM-1 ELISA which was conducted in situ without lysis. Inhibition of GSK-3β altered inflammation-related adhesion molecule expression. VCAM-1 is an endothelial adhesion molecule that facilitates monocyte infiltration into the blood vessel (3). Cells were treated as described in Example 2. Endothelial cells were exposed to KCl (10 mM, as a control) or with TNFα (10 ng/ml); LiCl (10 mM) alone and with TNFα (10 ng/ml), insulin (1 nM) alone or with TNFα (10 ng/ml). Following incubation for 24 h, […] assayed for VCAM-1 by ELISA. VCAM-1 ELISA was performed on monolayers of endothelial cells in 96 well plates. Wells were incubated with 100 μl of 1:1000 dilution of primary antibody (polyclonal goat anti-human VCAM-1 from R&D Systems) in medium containing 10% FBS. A rabbit anti-goat IgG-HRP was used as secondary antibody and ELISA was performed as described for MCP-1 above.

Experiment [2] deals with GSK-3β expression. In words: GSK-3β immunoblotting (Western blot, densitometry) of endothelial cells. The settings on record: 24 hours. The protocol:
GSK-3β-immunoblotting analyses of endothelial cells treated with different inflammatory and non-inflammatory agents were performed.
Cells were treated as taught in Examples 1 and 2. Endothelial cells were incubated with an agent for 24 hours. […] After incubation, the cells were washed, lysed and separated by polyacrylamide gel electrophoresis. Western blotting was performed, using antibody directed to GSK-3β, and detected.
On the technique in general: A western blot detects proteins with antibodies after separation by electrophoresis.

In experiment [3] the test system is GSK-3β expression. The experiment can be described thus: RT-PCR of GSK-3β in endothelial cells. The settings on record: endothelial cells (HMVEC); TNFα 10 ng/ml or AGE 100 μg/ml; 8 hours; vs control.
Method: HMVEC cells were treated with control medium or medium containing 10 ng/ml TNFα or 100 μg/ml glycated-HSA for 24 hrs. All treatments and controls were carried out in serum free media containing 0.2% albumin. Cells were collected into cold PBS using a cell scraper and used for RNA isolation.
Endothelial cells were incubated in media alone (control) or media containing TNFα (10 ng/ml) or AGE (100 μg/ml) for 8 hours. Poly (A) RNA was isolated and used as template for RT-PCR. Poly (A)+RNA was isolated from confluent cultures of HMVEC incubated under various conditions, using the Micropoly (A) pure kit (Ambion). RT-PCR with Superscript First-strand synthesis system (BRL) was performed according to the manufacture's instructions. […] 2: [sequence], representing a 406 bp region (from 519-925) in the coding sequence of GSK-3β (GSK-3β GenBank Accession No. L33801). […] PCR was carried out by using an initial denaturing step at 96° C. for 5 min, then cycle 35-times (or 25 times for quantitative RT-PCR) between 96° C. for 1 min, 58° C. for 45 sec, and 72° C. for 2 min. […] Samples (10 μl) were analyzed on a 1% agarose gel and stained with ethidium bromide and visualized by UV Tran illuminator (UIVP).
Experiment [4] relates to IL-6 production by endothelial cells. In words: IL-6 ELISA of endothelial cell media.
Method: Human aortic (HAEC) and microvascular (HMVEC) endothelial cells (Clonetics) were cultured and subcultured according to manufacturer in growth medium (Clonetics): basal medium containing hEGF, hydrocortisone, VEGF, HFGF-B (w/heparin), long R3-IGF-1, Ascorbic acid, gentamicin/amphotericin and 5% FBS. These cell were allowed to reach >90% confluency before being subjected to experimental treatments. […] Tumor necrosis factor α was from R&D Systems. Cells were incubated with 20 mM lithium (as LiCl or with 20 mM KCl as control) in the presence or absence of TNFα (10 ng/ml). Insulin (1 nM) was also used to inhibit GSK-3β.
HMVEC cells were treated with control medium or medium containing 10 ng/ml TNFα or 100 μg/ml glycated-HSA for 24 hrs. All treatments and controls were carried out in serum free media containing 0.2% albumin. […]
IL-6 ELISA was carried out using human IL-6 DuoSet ELISA development kit as described by manufacturer (R&D Systems). […] Color development was read at 450 nm in a microplate reader. […]
Following 24 h transfection, the cells were incubated for 24 h with medium alone or medium containing 300 μg/ml glycated albumin (AGE) or medium containing 10 ng/ml TNF-α. IL-6 and MCP-1 were determined by ELISA, as shown in Examples 2 and 3.
Empty vectors or vectors carrying alkaline phosphatase were used as controls. […] IL-6 and MCP-1 were determined by ELISA as described in Examples 2 and 3.
A further experiment concerns GSK-3β promoter. The experiment can be described thus: GSK-3β promoter-luciferase reporter assay in transfected BAEC. The settings on record: TNFα 10 ng/ml, 24-48 hours. In general terms: A reporter such as luciferase makes a cellular process visible.

Method for GSK-3β promoter: pGL3-GSK3B−1478/+534 was transfected into bovine aortic endothelial cells (BAEC) by electroporation. Transfected cells were aliquoted into 96 well plates and allowed to recover in full media for 16-24 hours. […] Luciferase activity was measured in cell lysates using Bright-Glo Luciferase Assay System (Promega).

Take insulin: known inhibitor of GSK-3β: the “increase of MCP-1” value in experiment [1] (added together with AGE 300 μg/ml, LiCl 10 mM or insulin 1 nM) is “approximately 2.8 fold”. Besides, in experiment [1] (agent alone (LiCl 10 mM, insulin 1 nM), vs 10 mM KCl (about 400 pg/ml)), the “increase of MCP-1 secretion” value is “about 50%”. Further, in the experiment on VCAM-1 expression (agent alone (LiCl 10 mM, insulin 1 nM)), the “effect on VCAM expression” value was “did not significantly affect”. The “effect on TNFα-induced VCAM-1 expression” value in the experiment on VCAM-1 expression (insulin 1 nM together with TNFα 10 ng/ml, vs TNFα alone) was “almost doubled the effect of TNFα alone”.

VEGF: in the experiment with GSK-3β expression [2] (VEGF 10 ng/ml), the “induction of GSK-3β expression” value was ~2 fold.

For the substance TNFα, the “intensity of the 406 bp GSK-3β RT-PCR band” value in the experiment on GSK-3β expression [3] was “decreased”. Also, in experiment [4] (TNFα 10 ng/ml alone, 24 h), the “increase in IL-6 secretion” value is “greater than 10 fold”. Also, the “induction of IL-6 expression” value in experiment [4] (endothelial cells transduced with control vector) is 10 fold. The “VCAM-1 expression, % of basal levels” value with VCAM-1 expression (TNFα 10 ng/ml alone) worked out at 340%. The “decrease of GSK-3β expression” value with GSK-3β expression [2] (TNF-α 10 ng/ml, AGE 300 μg/ml, oxidized LDL 100 μg/ml, IL-1β 1 ng/ml) was found to be 70%. Further, the “decrease of GSK-3β promoter activity (luciferase)” value in the experiment on GSK-3β promoter is on record as “greater than 50%”.
